Measured values as given in PubChem BioAssay AID1963422 (Molecular Pharmacology Branch, DTP, NCI, 2024).

Test system: 463943-066-T-J2-PDC complex spheroid growth
Experiment: Anticancer human tumor 463943-066-T-J2-PDC patient-derived colon adenocarcinoma cell line growth inhibition [Asc]
Details: for IC50: curve of first compound; for viability, T/C: stronger effect = lower value
In short: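 Stromal components (HUVEC and hMSC) are co-assembled with the cancer cells into multicellular spheroids. Drugs are then added singly or paired, at concentrations falling by half-log increments from a clinically achievable maximum, capped at 10 microM without known Cmax.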

[1] = second compound 0.0316 µM, first compound 0.0316 µM
[2] = second compound 0.0316 µM, first compound 0.1 µM
[3] = second compound 0.0316 µM, first compound 0.316 µM
[4] = second compound 0.0316 µM, first compound 1 µM
[5] = second compound 0.1 µM, first compound 0.0316 µM
[6] = second compound 0.1 µM, first compound 0.1 µM
[7] = second compound 0.1 µM, first compound 0.316 µM
[8] = second compound 0.1 µM, first compound 1 µM
[9] = second compound 0.316 µM, first compound 0.0316 µM
[10] = second compound 0.316 µM, first compound 0.1 µM
[11] = second compound 0.316 µM, first compound 0.316 µM
[12] = second compound 0.316 µM, first compound 1 µM
[13] = second compound 1 µM, first compound 0.0316 µM
[14] = second compound 1 µM, first compound 0.1 µM
[15] = second compound 1 µM, first compound 0.316 µM
[16] = second compound 1 µM, first compound 1 µM
[17] = second compound 3.16 µM, first compound 0.0316 µM
[18] = second compound 3.16 µM, first compound 0.1 µM
[19] = second compound 3.16 µM, first compound 0.316 µM
[20] = second compound 3.16 µM, first compound 1 µM
[21] = second compound 10 µM, first compound 0.0316 µM
[22] = second compound 10 µM, first compound 0.1 µM
[23] = second compound 10 µM, first compound 0.316 µM
[24] = second compound 10 µM, first compound 1 µM
[25] = second compound 0.0316 µM, first compound 0.00316 µM
[26] = second compound 0.0316 µM, first compound 0.01 µM
[27] = second compound 0.1 µM, first compound 0.00316 µM
[28] = second compound 0.1 µM, first compound 0.01 µM
[29] = second compound 0.316 µM, first compound 0.00316 µM
[30] = second compound 0.316 µM, first compound 0.01 µM
[31] = second compound 1 µM, first compound 0.00316 µM
[32] = second compound 1 µM, first compound 0.01 µM
[33] = second compound 3.16 µM, first compound 0.00316 µM
[34] = second compound 3.16 µM, first compound 0.01 µM
[35] = second compound 10 µM, first compound 0.00316 µM
[36] = second compound 10 µM, first compound 0.01 µM
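Note: compound exposure lasted 7 days.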
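Throughout, for viability, T/C: 100% = DMSO vehicle control wells.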

In the case of `C=CC(=O)N1CCN(c2nc(=O)n(-c3c(C)ccnc3C(C)C)c3nc(-c4c(O)cccc4F)c(F)cc23)C(C)C1` (stereo unspecified) + Cc1c(S(C)(=O)=O)c(-c2cc(F)cc(N3CCN(c4ccc(NS(=O)(=O)c5ccc(NC(CCN6CCC(C(=O)OCCCP(=O)(O)O)CC6)CSc6ccccc6)c(S(=O)(=O)C(F)(F)F)c5)cc4)CC3)c2)c(-c2ccc(Cl)cc2)n1C(C)C, the IC50 (second compound 0.0316 µM) is reported as > 10000 nM, the IC50 (second compound 0.1 µM) is reported as > 10000 nM and the IC50 (second compound 0.316 µM) is reported as > 10000 nM. For the same compound, the IC50 (second compound 1 µM) was > 10000 nM, the IC50 (second compound 3.16 µM) was > 10000 nM and the IC50 (second compound 10 µM) was 7140 nM. It also gave a viability, T/C [1] of 84.9%, a viability, T/C [2] of 92.3% and a viability, T/C [3] of 91%. The viability, T/C [4] was 96.1%, the viability, T/C (second compound 0.0316 µM, first compound 3.16 µM) was 100% and the viability, T/C (second compound 0.0316 µM, first compound 10 µM) was 78.3%. For the same compound, the viability, T/C [5] was 95%, the viability, T/C [6] was 89.7% and the viability, T/C [7] was 91.4%. The viability, T/C [8] was 93.6%, the viability, T/C (second compound 0.1 µM, first compound 3.16 µM) was 91.9% and the viability, T/C (second compound 0.1 µM, first compound 10 µM) was 84.4%. The viability, T/C [9] was 83.8%, the viability, T/C [10] was 90% and the viability, T/C [11] was 85.3%. For the same compound, the viability, T/C [12] was 87.3%, the viability, T/C (second compound 0.316 µM, first compound 3.16 µM) was 86.8% and the viability, T/C (second compound 0.316 µM, first compound 10 µM) was 83%. It also gave a viability, T/C [13] of 74%, a viability, T/C [14] of 75.6% and a viability, T/C [15] of 75.3%. The viability, T/C [16] was 77%, the viability, T/C (second compound 1 µM, first compound 3.16 µM) was 72% and the viability, T/C (second compound 1 µM, first compound 10 µM) was 64.4%. It also gave a viability, T/C [17] of 57.8%, a viability, T/C [18] of 59.4% and a viability, T/C [19] of 60.1%. For the same compound, the viability, T/C [20] was 65%, the viability, T/C (second compound 3.16 µM, first compound 3.16 µM) was 66% and the viability, T/C (second compound 3.16 µM, first compound 10 µM) was 54.2%. The viability, T/C [21] was 51.5%, the viability, T/C [22] was 48.2% and the viability, T/C [23] was 52.9%. It also gave a viability, T/C [24] of 50.6%, a viability, T/C (second compound 10 µM, first compound 3.16 µM) of 52.1% and a viability, T/C (second compound 10 µM, first compound 10 µM) of 47.9%.

Work on `COc1c(OCCCN2CCOCC2)ccc2c3n(c(=NC(=O)c4cnc(N)nc4)nc12)CCN3` + Cc1c(S(C)(=O)=O)c(-c2cc(F)cc(N3CCN(c4ccc(NS(=O)(=O)c5ccc(NC(CCN6CCC(C(=O)OCCCP(=O)(O)O)CC6)CSc6ccccc6)c(S(=O)(=O)C(F)(F)F)c5)cc4)CC3)c2)c(-c2ccc(Cl)cc2)n1C(C)C yielded an IC50 (second compound 0.0316 µM) of 442 nM, an IC50 (second compound 0.1 µM) of 406 nM and an IC50 (second compound 0.316 µM) of 215 nM. For the same compound, the IC50 (second compound 1 µM) was 157 nM, the IC50 (second compound 3.16 µM) was 27 nM and the IC50 (second compound 10 µM) was < 3.16 nM. The viability, T/C [25] was 95.3%, the viability, T/C [26] was 91.8% and the viability, T/C [1] was 83.6%. The viability, T/C [2] was 64.6%, the viability, T/C [3] was 57.8% and the viability, T/C [4] was 38.4%. For the same compound, the viability, T/C [27] was 94.4%, the viability, T/C [28] was 86% and the viability, T/C [5] was 79.3%. For the same compound, the viability, T/C [6] was 65.9%, the viability, T/C [7] was 55.7% and the viability, T/C [8] was 36.2%. For the same compound, the viability, T/C [29] was 87.7%, the viability, T/C [30] was 92.6% and the viability, T/C [9] was 69%. It also gave a viability, T/C [10] of 57.5%, a viability, T/C [11] of 49.7% and a viability, T/C [12] of 34.1%. For the same compound, the viability, T/C [31] was 78.9%, the viability, T/C [32] was 74.5% and the viability, T/C [13] was 61.8%. For the same compound, the viability, T/C [14] was 51.6%, the viability, T/C [15] was 49.5% and the viability, T/C [16] was 27.1%. The viability, T/C [33] was 63.6%, the viability, T/C [34] was 58.8% and the viability, T/C [17] was 46%. It also gave a viability, T/C [18] of 41%, a viability, T/C [19] of 33.6% and a viability, T/C [20] of 21.5%. It also gave a viability, T/C [35] of 48.1%, a viability, T/C [36] of 44.7% and a viability, T/C [21] of 41.2%. The viability, T/C [22] was 35.6%, the viability, T/C [23] was 35.6% and the viability, T/C [24] was 21.4%.

For `NC1CCC(NC2CC2c2ccccc2)CC1` (stereo unspecified) + Cc1c(S(C)(=O)=O)c(-c2cc(F)cc(N3CCN(c4ccc(NS(=O)(=O)c5ccc(NC(CCN6CCC(C(=O)OCCCP(=O)(O)O)CC6)CSc6ccccc6)c(S(=O)(=O)C(F)(F)F)c5)cc4)CC3)c2)c(-c2ccc(Cl)cc2)n1C(C)C, the IC50 (second compound 0.0316 µM) was > 100 nM, the IC50 (second compound 0.1 µM) was > 100 nM and the IC50 (second compound 0.316 µM) was > 100 nM. The IC50 (second compound 1 µM) was > 100 nM, the IC50 (second compound 3.16 µM) was > 100 nM and the IC50 (second compound 10 µM) was < 0.316 nM. It also gave a viability, T/C (second compound 0.0316 µM, first compound 0.000316 µM) of 88%, a viability, T/C (second compound 0.0316 µM, first compound 0.001 µM) of 82.3% and a viability, T/C [25] of 81.4%. The viability, T/C [26] was 84.3%, the viability, T/C [1] was 88.5% and the viability, T/C [2] was 80.5%. It also gave a viability, T/C (second compound 0.1 µM, first compound 0.000316 µM) of 94.4%, a viability, T/C (second compound 0.1 µM, first compound 0.001 µM) of 85.5% and a viability, T/C [27] of 95.6%. For the same compound, the viability, T/C [28] was 82.7%, the viability, T/C [5] was 87.7% and the viability, T/C [6] was 76.9%. It also gave a viability, T/C (second compound 0.316 µM, first compound 0.000316 µM) of 88.1%, a viability, T/C (second compound 0.316 µM, first compound 0.001 µM) of 81.7% and a viability, T/C [29] of 77.9%. It also gave a viability, T/C [30] of 85%, a viability, T/C [9] of 80% and a viability, T/C [10] of 80.2%. For the same compound, the viability, T/C (second compound 1 µM, first compound 0.000316 µM) was 75.3%, the viability, T/C (second compound 1 µM, first compound 0.001 µM) was 72.5% and the viability, T/C [31] was 73.8%. The viability, T/C [32] was 71.9%, the viability, T/C [13] was 71.9% and the viability, T/C [14] was 68.4%. It also gave a viability, T/C (second compound 3.16 µM, first compound 0.000316 µM) of 59.3%, a viability, T/C (second compound 3.16 µM, first compound 0.001 µM) of 58.6% and a viability, T/C [33] of 59.3%. For the same compound, the viability, T/C [34] was 58.6%, the viability, T/C [17] was 60.1% and the viability, T/C [18] was 56.1%. For the same compound, the viability, T/C (second compound 10 µM, first compound 0.000316 µM) was 45.1%, the viability, T/C (second compound 10 µM, first compound 0.001 µM) was 48.8% and the viability, T/C [35] was 51.6%. For the same compound, the viability, T/C [36] was 49.1%, the viability, T/C [21] was 52.3% and the viability, T/C [22] was 52.6%.
